The test system of the assay is HMOX1. In words: HMOX1 Protein Assay (immunostaining of HO-1 in NHLF cells, GE InCell 1000). The class given is cell-based. The conditions noted are these: Homo sapiens, fold change above DMSO treated cells, 16 h; for fold induction at 5 µM: 5 μM compound; for fold induction at 3 µM: 3 μM compound (asterisk). In a few lines: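 NHLF cells seeded overnight in FGM-2, then exposed to compound or DMSO vehicle for 16 h, fixed, and immunostained for HO-1 with Hoechst nuclear counterstain; imaged on InCell 1000. Values are fold change over DMSO-treated cells, generally at 5 μM (0.8% DMSO), with asterisked entries at 3 μM.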

SMILES strings stand for the structures. Structures can show the parent of a compound that is named as a salt.

The molecule `Cn1c(Nc2nc3ccc(OC(F)(F)F)cc3s2)nc2cc(C(=O)NCCOCCO)cnc21` [Example 238, 3-Methyl-2-(6-trifluoromethoxy-benzothiazol-2-ylamino)-3H-imidazo[4,5-b]pyridine-6-carboxylic acid [2-(2-hydroxy-ethoxy)-ethyl]-amide] came in with a fold induction at 5 µM of 33. Molecule `Cn1c(Nc2nc3ccc(OC(F)(F)F)cc3s2)nc2cc(C(=O)NCCC(=O)O)ccc21` [Example 98, 3-{[2-(6-Trifluoromethoxy-benzothiazol-2-ylamino)-1-methyl-1H-benzimidazole-5-carbonyl]-amino}-propionic acid] showed a fold induction at 5 µM of 13.8. `Cn1c(Nc2nc3ccc(C(F)(F)F)cc3s2)nc2cc(C(=O)NCC(=O)N3CCC(O)CC3)ccc21` [Example 437, 1-Methyl-2-(6-trifluoromethyl-benzothiazol-2-ylamino)-1H-benzoimidazole-5-carboxylic acid [2-(4-hydroxy-piperidin-1-yl)-2-oxo-ethyl]-amide] had a fold induction at 3 µM of 47.1.

With `C[C@H](NC(=O)c1ccc2c(c1)nc(Nc1nc3ccc(C(F)(F)F)cc3s1)n2C)C(=O)N1CCOCC1` [Example 466, 1-Methyl-2-(6-trifluoromethyl-benzothiazol-2-ylamino)-1H-benzoimidazole-5-carboxylic acid ((S)-1-methyl-2-morpholin-4-yl-2-oxo-ethyl)-amide], the fold induction at 3 µM stood at 22.4. For `Cn1c(Nc2nc3ccc(OC(F)(F)F)cc3s2)nc2cc(C(=O)NCCC3CCCCO3)ccc21` (centres unmarked) [Example 263, 1-Methyl-2-(6-trifluoromethoxy-benzothiazol-2-ylamino)-1H-benzoimidazole-5-carboxylic acid [2-(tetrahydro-pyran-2-yl)-ethyl]-amide], the fold induction at 5 µM was 19.9. The molecule `Cn1c(Nc2nc3ccc(Cl)cc3s2)nc2cc(C(=O)NC[C@H]3CC[C@H](O)CC3)ccc21` [Example 233, 2-(6-Chloro-benzothiazol-2-ylamino)-1-methyl-1H-benzoimidazole-5-carboxylic acid (trans-4-hydroxy-cyclohexylmethyl)-amide] registered a fold induction at 3 µM of 28. Regarding `Cn1c(Nc2nc3ccc(Cl)cc3s2)nc2cc(C(=O)NCCOCCCF)ccc21` [Example 249, 2-(6-Chloro-benzothiazol-2-ylamino)-1-methyl-1H-benzoimidazole-5-carboxylic acid [2-(3-fluoro-propoxy)-ethyl]-amide], the fold induction at 5 µM was determined as 31.2. Regarding `CN1CCN(C(=O)CNC(=O)c2ccc3c(c2)nc(Nc2nc4ccc(C(F)(F)F)cc4s2)n3C)CC1` [Example 427, 1-Methyl-2-(6-trifluoromethyl-benzothiazol-2-ylamino)-1H-benzoimidazole-5-carboxylic acid [2-(4-methyl-piperazin-1-yl)-2-oxo-ethyl]-amide], the fold induction at 3 µM is 17.

In turn, `CN(C)CCCC[C@H](NC(=O)c1ccc2c(c1)nc(Nc1nc3ccc(C(F)(F)F)cc3s1)n2C)C(=O)N(C)C` [Example 370, 1-Methyl-2-(6-trifluoromethyl-benzothiazol-2-ylamino)-1H-benzoimidazole-5-carboxylic acid ((S)-5-dimethylamino-1-dimethylcarbamoyl-pentyl)-amide] showed a fold induction at 3 µM of 19.3. With `CCN(CC)c1cc2c(cc1C(=O)O)nc(Nc1nc3ccc(OC(F)(F)F)cc3s1)n2C` [Example 70, 6-Diethylamino-1-methyl-2-(6-trifluoromethoxy-benzothiazol-2-ylamino)-1H-benzoimidazole-5-carboxylic acid], the fold induction at 5 µM came out at 21.4.

Consider `CN(CCO)C(=O)CNC(=O)c1ccc2c(c1)nc(Nc1nc3ccc(Cl)cc3s1)n2C` [Example 391, 2-(6-Chloro-benzothiazol-2-ylamino)-1-methyl-1H-benzoimidazole-5-carboxylic acid {[(2-hydroxy-ethyl)-methyl-carbamoyl]-methyl}-amide], for which the fold induction at 5 µM was 38.6.

On to `Cn1c(Nc2nc3ccc(Cl)cc3s2)nc2cc(C(=O)NCC3CCN(CCO)CC3)ccc21` [Example 303, 2-(6-Chloro-benzothiazol-2-ylamino)-1-methyl-1H-benzoimidazole-5-carboxylic acid [1-(2-hydroxy-ethyl)-piperidin-4-ylmethyl]-amide], for which the fold induction at 5 µM was determined as 25.6.

Turning to `Cn1c(Nc2nc3ccc(OC(F)(F)F)cc3s2)nc2cc(C(=O)N3CCCC3)ccc21` [Example 7, [1-Methyl-2-(6-trifluoromethoxy-benzothiazol-2-ylamino)-1H-benzoimidazol-5-yl]-pyrrolidin-1-yl-methanone], the fold induction at 5 µM stood at 5.4. In turn, `Cn1c(Nc2nc3ccc(Cl)cc3s2)nc2cc(C(=O)NCC(=O)N3CC[C@@H](O)C3)ccc21` [Example 400, 2-(6-Chloro-benzothiazol-2-ylamino)-1-methyl-1H-benzoimidazole-5-carboxylic acid [2-((R)-3-hydroxy-pyrrolidin-1-yl)-2-oxo-ethyl]-amide] displayed a fold induction at 3 µM of 15. For `Cn1c(Nc2nc3ccc(OC(F)(F)F)cc3s2)nc2cc(C(=O)NCC(F)(F)F)ccc21` [Example 16, 1-Methyl-2-(6-trifluoromethoxy-benzothiazol-2-ylamino)-1H-benzoimidazole-5-carboxylic acid (2,2,2-trifluoro-ethyl)-amide], the fold induction at 5 µM was determined as 30. Same read-out and setting: the same measure for `CN(CCO)C(=O)CNC(=O)c1ccc2c(c1)nc(Nc1nc3ccc(OC(F)(F)F)cc3s1)n2C` [Example 390, 1-Methyl-2-(6-trifluoromethoxy-benzothiazol-2-ylamino)-1H-benzoimidazole-5-carboxylic acid {[(2-hydroxy-ethyl)-methyl-carbamoyl]-methyl}-amide]: 46.4. `Cn1c(Nc2nc3ccc(OC(F)(F)F)cc3s2)nc2cc(C(=O)NCc3nccs3)ccc21` [Example 96, 1-Methyl-2-(6-trifluoromethoxy-benzothiazol-2-ylamino)-1H-benzoimidazole-5-carboxylic acid (thiazol-2-ylmethyl)-amide] returned a fold induction at 5 µM of 12. As to `CN(C)C(=O)CCNC(=O)c1ccc2c(c1)nc(Nc1nc3ccc(Cl)cc3s1)n2C` [Example 371, 2-(6-Chloro-benzothiazol-2-ylamino)-1-methyl-1H-benzoimidazole-5-carboxylic acid (2-dimethylcarbamoyl-ethyl)-amide], the fold induction at 3 µM was found to be 29. Take `Cn1c(Nc2nc3ccc(Cl)cc3s2)nc2cc(C(=O)N[C@@H]3CCN(CCO)C3)ccc21` [Example 292, 2-(6-Chloro-benzothiazol-2-ylamino)-1-methyl-1H-benzoimidazole-5-carboxylic acid [(R)-1-(2-hydroxy-ethyl)-pyrrolidin-3-yl]-amide]: the fold induction at 5 µM was determined as 39. With `CCNC(=O)c1ccc2c(c1)nc(Nc1nc3ccc(OC(F)(F)F)cc3s1)n2C` [Example 6, 1-Methyl-2-(6-trifluoromethoxy-benzothiazol-2-ylamino)-1H-benzoimidazole-5-carboxylic acid ethylamide], the fold induction at 5 µM was 9.45. `CCn1c(Nc2nc3ccc(C(F)(F)F)cc3s2)nc2cc(C(=O)NCC(C)(C)OC)ccc21` [Example 184, 1-Ethyl-2-(6-trifluoromethyl-benzothiazol-2-ylamino)-1H-benzoimidazole-5-carboxylic acid (2-methoxy-2-methyl-propyl)-amide] gave a fold induction at 5 µM of 9.5. For the molecule `Cn1c(Nc2nc3ccc(Cl)cc3s2)nc2cc(C(=O)N[C@H]3CCNC3)ccc21` [Example 291, 2-(6-Chloro-benzothiazol-2-ylamino)-1-methyl-1H-benzoimidazole-5-carboxylic acid (S)-pyrrolidin-3-ylamide hydrochloride], the fold induction at 5 µM worked out at 17. `CCNC(=O)c1ccc2c(c1)nc(Nc1nc3ccc(OC(F)(F)F)cc3s1)n2C(C)C` [Example 161, 1-Isopropyl-2-(6-trifluoromethoxy-benzothiazol-2-ylamino)-1H-benzoimidazole-5-carboxylic acid ethylamide] yielded a fold induction at 5 µM of 19.1. For the molecule `Cn1c(Nc2nc3ccc(OC(F)(F)F)cc3s2)nc2cc(C(=O)NCC3CCCO3)ccc21` (centres unmarked) [Example 18, 1-Methyl-2-(6-trifluoromethoxy-benzothiazol-2-ylamino)-1H-benzoimidazole-5-carboxylic acid (tetrahydro-furan-2-ylmethyl)-amide], the fold induction at 5 µM turned out to be 20.1.

On to `CN1CCCCC1CNC(=O)c1ccc2c(c1)nc(Nc1nc3ccc(Cl)cc3s1)n2C` (centres unmarked) [Example 318, 2-(6-Chloro-benzothiazol-2-ylamino)-1-methyl-1H-benzoimidazole-5-carboxylic acid (1-methyl-piperidin-2-ylmethyl)-amide], for which the fold induction at 5 µM worked out at 11.9. Molecule `Cn1c(Nc2nc3ccc(OC(F)(F)F)cc3s2)nc2cc(C(=O)N3CCC(CCCO)CC3)ccc21` [Example 307, [4-(3-Hydroxy-propyl)-piperidin-1-yl]-[1-methyl-2-(6-trifluoromethoxy-benzothiazol-2-ylamino)-1H benzoimidazol-5-yl]-methanone] registered a fold induction at 5 µM of 31.5. Regarding `Cn1c(Nc2nc3ccc(OC(F)(F)F)cc3s2)nc2cc(C(=O)NC(C)(C)C(=O)O)ccc21` [Example 148, 2-Methyl-2-{[1-methyl-2-(6-trifluoromethoxy-benzothiazol-2-ylamino)-1H-benzimidazole-5-carbonyl]-amino}-propionic acid], the fold induction at 5 µM is 12.

For `Cn1c(Nc2nc3ccc(OC(F)(F)F)cc3s2)nc2cc(C(=O)NCC#N)ccc21` [Example 211, 1-Methyl-2-(6-trifluoromethoxy-benzothiazol-2-ylamino)-1H-benzoimidazole-5-carboxylic acid cyanomethyl-amide], the fold induction at 5 µM was 46.1. Still for that read-out and setting: the same measure for `Cn1c(Nc2nc3ccc(OC(F)(F)F)cc3s2)nc2cc(C(=O)NCCNC(=O)OC(C)(C)C)ccc21` [Example 103, (2-{[1-Methyl-2-(6-trifluoromethoxy-benzothiazol-2-ylamino)-1H-benzoimidazole-5-carbonyl]-amino}-ethyl)-carbamic acid tert-butyl ester]: 9.

The fold induction is the ratio of treated to control signal.

Source of the values: patent US8759535B2, “Substituted fused imidazole derivatives, pharmaceutical compositions, and methods of use thereof” (High Point Pharmaceuticals, LLC, priority 2010, dated 2014).
